Measurements as given in patent US20020137929A1, “1 - (3-heterocyclylphenyl) isothiourea, -isourea, -guanidine and -amidine herbicidal agents” (Intellectual Property Department, BASF Aktiengesellschaft, priority 1998, published 2002).

How the values were obtained:
[1] = system: AMBEL (Ragweed, Common); assay: Preemergence herbicidal evaluation; assay type: in vivo, Ambrosia artemisifolia; conditions: rated 4-5 weeks after treatment
Outline: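 Greenhouse preemergence test: seed-soil mix sown on ~1 inch soil; aqueous acetone spray at equivalent of ~0.0156–0.500 kg/ha; greenhouse-held and watered; scored 0–9 visually at 4–5 weeks.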

[2] = system: CYPIR (Rice Flatsedge); assay: Preemergence weed control under flooded paddy conditions; assay type: in vivo, Cyperus iria; conditions: rated 3-4 weeks after treatment
Outline: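 Silt loam, seeds in top 0.5 cm; flood held 1.5-3 cm; test cpd as acetone/water 50/50 into flood water, ~0.0313-0.500 kg/ha a.i.; greenhouse 3-4 wk; visual 0-9 score vs control.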

[3] = system: MOOVA (Monochoria); assay: Postemergence weed control under flooded paddy conditions; assay type: in vivo, Monochoria vaginalis; conditions: postemergence weeds, 3-4 weeks after treatment
Outline: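 Weeds 3 to 5 cm tall and rice seedlings at the 1.5 to 2.5 leaf stage were flooded, with water held 1.5 to 3 cm above the soil. Compounds in 50/50 v/v aqueous/acetone went into the flood water at about 0.0313 to 0.500 kg/ha. Visual 0-9 ratings versus control were made 3 to 4 weeks later.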

Row | SMILES | AMBEL preemergence herbicidal rating ([1]; rate 0.0625 kg/ha) | AMBEL preemergence herbicidal rating ([1]; rate 0.1250 kg/ha) | AMBEL preemergence herbicidal rating ([1]; rate 0.2500 kg/ha) | Herbicidal rating CYPIR ([2]; 0.0313 kg/ha) | Herbicidal rating CYPIR ([2]; 0.0625 kg/ha) | Herbicidal rating CYPIR ([2]; 0.1250 kg/ha) | Herbicidal rating CYPIR ([2]; 0.2500 kg/ha) | Herbicidal rating MOOVA ([3]; rate 0.0313 kg/ha) | Herbicidal rating MOOVA ([3]; rate 0.0625 kg/ha) | Herbicidal rating MOOVA ([3]; rate 0.1250 kg/ha) | Herbicidal rating MOOVA ([3]; rate 0.2500 kg/ha) | Preemergence herbicidal rating AMBEL ([1]; rate 0.0156 kg/ha) | Preemergence herbicidal rating AMBEL ([1]; rate 0.0313 kg/ha) | Preemergence herbicidal rating AMBEL ([1]; rate 0.0625 kg/ha) | Preemergence herbicidal rating AMBEL ([1]; rate 0.1250 kg/ha) | Preemergence herbicidal rating AMBEL ([1]; rate 0.2500 kg/ha) | other results
1 | CCOC(=O)CN1C(=O)C2(CC2)SC1=Nc1cc(-n2c(=O)cc(C(F)(F)F)n(C)c2=O)c(F)cc1Cl [Compound 15, Ethyl 5-{{2-chloro-5-[3,6-dihydro-3-methyl-2,6-dioxo-4-(trifluoromethyl)-1(2H)-pyrimidinyl]-4-fluorophenyl}imino}-7-oxo-4-thia-6-azaspiro[2.4]-heptane-6-acetate] | 1.5 | 3.0 | 9.0 | 2.0 | 2.0 | 6.0 | 7.0 | 9.0 | 9.0 | 9.0 | 9.0 | – | – | – | – | – | AMBEL preemergence herbicidal rating ([1]; rate 0.0156 kg/ha): 0.5; AMBEL preemergence herbicidal rating ([1]; rate 0.0313 kg/ha): 1.0
2 | CCOC(=O)CN1C(=O)CO/C1=N/c1cc(-n2c(=O)cc(C(F)(F)F)n(C)c2=O)c(F)cc1Cl [Compound 22, Ethyl 2-{{2-chloro-5-[3,6-dihydro-3-methyl-2,6-dioxo-4-(trifluoromethyl)-1(2H)-pyrimidinyl]-4-fluorophenyl}imino}-4-oxo-3-oxazolidineacetate] | 7.0 | 9.0 | 9.0 | – | – | – | – | – | – | – | – | – | – | – | – | – | AMBEL preemergence herbicidal rating ([1]; rate 0.0156 kg/ha): 0.0; AMBEL preemergence herbicidal rating ([1]; rate 0.0313 kg/ha): 5.0; Herbicidal rating CYPIR ([2]; 0.1160 kg/ha): 0.0; Herbicidal rating CYPIR ([2]; 0.2310 kg/ha): 0.0; Herbicidal rating CYPIR ([2]; 0.4630 kg/ha): 5.0; Herbicidal rating MOOVA ([3]; rate 0.1160 kg/ha): 9.0; Herbicidal rating MOOVA ([3]; rate 0.2310 kg/ha): 9.0; Herbicidal rating MOOVA ([3]; rate 0.4630 kg/ha): 9.0
3 | CN(C)N1C(=O)CSC1=Nc1cc(-n2c(=O)cc(C(F)(F)F)n(C)c2=O)c(F)cc1Cl [Compound 23, 3-{4-Chloro-5-{[3-(dimethylamino)-4-oxo-2-thiazolidinylidine]amino}-2-fluorophenyl}-1-methyl-6-(trifluoromethyl)-2,4(1H,3H)-pyrimidinedione] | 3.0 | 6.0 | 7.0 | – | – | – | – | – | – | – | – | – | – | – | – | – | AMBEL preemergence herbicidal rating ([1]; rate 0.0156 kg/ha): 0.0; AMBEL preemergence herbicidal rating ([1]; rate 0.0313 kg/ha): 0.0; Herbicidal rating CYPIR ([2]; 0.1160 kg/ha): 0.0; Herbicidal rating CYPIR ([2]; 0.2310 kg/ha): 0.0; Herbicidal rating CYPIR ([2]; 0.4630 kg/ha): 0.0; Herbicidal rating MOOVA ([3]; rate 0.1160 kg/ha): 9.0; Herbicidal rating MOOVA ([3]; rate 0.2310 kg/ha): 9.0; Herbicidal rating MOOVA ([3]; rate 0.4630 kg/ha): 9.0
4 | CCOC(=O)CN1C(=O)CN(C)C1=Nc1cc(-n2c(=O)cc(C(F)(F)F)n(C)c2=O)c(F)cc1Cl [Compound 25, Ethyl 2-{{2-chloro-5-[3,6-dihydro-3-methyl-2,6-dioxo-4-(trifluoromethyl)-1(2H)-pyrimidinyl]-4-fluorophenyl}imino}-3-methyl-5-oxo-1-imidazolidineacetate] | 9.0 | 9.0 | 9.0 | 0.0 | 0.0 | 0.0 | 0.0 | 9.0 | 9.0 | 9.0 | 9.0 | 0.0 | 2.0 | – | – | – | –
5 | Cn1c(C(F)(F)F)cc(=O)n(-c2cc(N=C3SCC(=O)N3Cc3ccccc3)c(Cl)cc2F)c1=O [Compound 26] | – | – | – | 2.0 | 4.0 | 7.0 | 9.0 | 9.0 | 9.0 | 9.0 | 9.0 | 0.0 | 0.0 | 0.0 | 5.0 | 5.0 | –
6 | COC(=O)CCCN1C(=O)CSC1=Nc1cc(-n2c(=O)cc(C(F)(F)F)n(C)c2=O)c(F)cc1Cl [Compound 29, Methyl 2-{{2-chloro-5-[3,6-dihydro-3-methyl-2,6-dioxo-4-(trifluoromethyl)-1(2H)-pyrimidinyl]-4-fluorophenyl}imino}-4-oxo-3-thiazolidinebutyrate] | – | – | – | 0.0 | 0.0 | 0.0 | 0.0 | 0.0 | 0.0 | 0.0 | 0.0 | – | – | 0.0 | 0.0 | 0.0 | –
7 | Cn1c(C(F)(F)F)cc(=O)n(-c2cc(N=C3NC(=O)CS3)c(Cl)cc2F)c1=O [Compound 39, 3-{4-Chloro-2-fluoro-5-[(4-oxo-2-thiazolidinylidene)amino]phenyl}-1-methyl-6-(trifluoromethyl)-2,4(1H,3H)-pyrimidinedione] | – | – | – | 0.0 | 0.0 | 0.0 | 0.0 | 9.0 | 9.0 | 9.0 | 9.0 | 0.0 | 0.0 | 0.0 | 6.0 | 7.0 | –
8 | Cn1c(C(F)(F)F)cc(=O)n(-c2cc(N=C3SCC(=O)N3CC(=O)OC(C)(C)C)c(Cl)cc2F)c1=O [Compound 43, tert-Butyl 2-{{2-chloro-5-[3,6-dihydro-3-methyl-2,6-dioxo-4-(trifluoromethyl)-1(2H)-pyrimidinyl]-4-fluorophenyl}imino}-4-oxo-3-thiazolidineacetate] | – | – | – | 0.0 | 2.0 | 4.0 | 5.0 | 9.0 | – | 9.0 | 9.0 | 0.0 | 0.0 | 0.0 | 3.0 | 4.0 | Herbicidal rating MOOVA ([3]; rate 0.0825 kg/ha): 9.0
9 | CCOC(=O)CN1C(=O)CS(=O)(=O)C1=Nc1cc(-n2c(=O)cc(C(F)(F)F)n(C)c2=O)c(F)cc1Cl [Compound 46, 2-{{2-Chloro-5-[3,6-dihydro-3-methyl-2,6-dioxo-4-(trifluoromethyl)-1(2H)-pyrimidinyl]-4-fluoro-phenyl}imino}-4-oxo-3-thiazolidineacetic acid, ethyl ester, 1,1-dioxide] | – | – | – | 0.0 | 0.0 | 0.0 | 0.0 | 3.0 | 4.0 | 6.0 | 7.0 | – | – | – | 1.0 | 1.0 | –
10 | CCOC(=O)CN1C(=O)C(CCO)S/C1=N/c1cc(-n2c(=O)cc(C(F)(F)F)n(C)c2=O)c(F)cc1Cl (stereo not drawn) [Compound 49, Ethyl 2-{{2-chloro-5-[3,6-dihydro-3-methyl-2,6-dioxo-4-(trifluoromethyl)-1(2H)-pyrimidinyl]-4-fluorophenyl}imino}-5-(hydroxyethyl)-4-oxo-3-thiazolidineacetate] | – | – | – | 0.0 | 0.0 | 2.0 | 7.0 | 9.0 | 9.0 | 9.0 | 9.0 | 0.0 | 0.0 | 9.0 | 9.0 | 9.0 | –
11 | CCOC(=O)CN1C(=O)C(CC(=O)OC)S/C1=N/c1cc(-n2c(=O)cc(C(F)(F)F)n(C)c2=O)c(F)cc1Cl (stereo not drawn) [Compound 54, 2-{{2-Chloro-5-[3,6-dihydro-3-methyl-2,6-dioxo-4-(trifluoromethyl)-1(2H)-pyrimidinyl]-4-fluorophenyl}imino}-4-oxo-3,5-thiazolidinediacetic acid, 3-ethyl methyl ester] | – | – | – | 0.0 | 4.0 | 4.0 | 4.0 | 0.0 | 0.0 | 6.0 | 6.0 | 0.0 | 0.5 | 8.0 | 9.0 | 9.0 | Preemergence herbicidal rating AMBEL ([1]; rate 0.5000 kg/ha): 9.0
